# Patent publication US20150181873A1, “HERBICIDE-RESISTANT SUNFLOWER PLANTS, POLYNUCLEOTIDES ENCODING HERBICIDE=RESISTANT ACETO HYDROXY ACID SYNTHASE LARGE SUBUNIT PROTEINS, AND METHODS OF USE” (NIDERA S.A., priority 2013, published 2015)
# “And” between values parts separate entries of the source, which are not always exact repeats. Identical values can stand only once.
# Key:
# Type in all cases: in vivo, Helianthus annuus
# [1] = system: sunflower genotypes carrying the A205V mutation event; assay: Greenhouse imazapir dose response, A205V genotypes together; conditions: 14 DAT; for biomass accumulation, Dif with control / plant height, Dif with Control / root dry weight, Dif with control: A205V mean; for biomass accumulation, % of untreated, Mean / root dry weight, % of untreated, Mean / plant height, % of untreated, Mean: six A205V genotypes; for Phytotoxicity Index, Mean: three A205V genotypes
# Protocol: (§1) A greenhouse study was conducted to quantify and contrast the imazapir sensivity of the mutants A122T and A205V in different genetic backgrounds at the whole plant level in sunflower. Seeds of the different sunflower lines that were used in this study were obtained under field conditions.
# (§2) Seeds were sown in Petri dishes and, after germination, plantlets were transplanted to pots of 10 cm of diameter in a potting media consisting of equal parts of vermiculite, soil and sand. Plants were grown in a greenhouse under natural light conditions supplemented with 400 W sodium halide lamps to provide a 16 hrs daylength. Day/night temperatures were 25 and 20° C., respectively. At the V2 stage 10 plants of each genotype were randomly assigned to each treatment consisting of […] imazapir doses (0, 40, 80, 160, 240, 320, 400 and 480 g ai/ha), and a zero-time biomass determination. Experiment was arranged as a randomized block design with a full factorial (sunflower line×treatment) arrangement of treatments and 10 replications.
# (§3) On the day of herbicide application ten plants of each genotype were cut at the cotyledonal node and dried at 60° C. for 48 hrs zero-time for dried weight determination. […] Height was determined as the distance between the cotyledonal node and the apex of each plant. For root biomass determination, each plant was taken from the pot and the potting media was washed out from the roots. Above ground biomass data from each line were converted to biomass accumulation after application by subtracting the appropriate average zero-time biomass from each sample. Dry biomass data were converted to percentages of the untreated control plants within each line to allow direct comparisons between groups.
# [2] = system: sunflower hybrid TH11 (A122T); assay: Greenhouse imazapir dose response, TH11; conditions: 14 DAT
# Protocol: as §1, §2, §3
# [3] = system: sunflower line GIM 5-7 (A205V); assay: Greenhouse imazapir dose response, GIM 5-7; conditions: GIM5-7 (A205V), 14 DAT
# Protocol: as §1, §2, §3
# [4] = system: Clearfield sunflower variety C; assay: Greenhouse spray injury rating, Clearfield variety C; conditions: imazapyr 240 gm ai/ha, scale 0-9
# Description: Sunflower lines S4897, Clearfield® sunflower varieties A, B, C and a conventional non-Clearfield variety were sprayed with three rates of imazamox (Raptor™), 100, 200 and 300 gm ai/ha plus 0.5% Sun It II and two rates of imazapyr (Arsenal™) 160 and 360 gm ai/ha plus 0.5% Sun It II when the plants were at the two to three leaf stage. Ratings were taken at 14 days after application (DAT) for injury. Injury was rated on a scale from 0 to 9 where 0=no injury to 9=dead plant. Twelve plants were sprayed per herbicide/rate treatment. Statistical analysis was conducted with STATGRAPHICS Plus 5.0 by using ANOVA and LSD procedures.
# After plants were sprayed, it was realized that a height difference between S4897 and other sunflower varieties would have impacted the actual herbicide dose that was delivered. The spray boom height had been calibrated against S4897 and since the other varieties were taller and closer to the boom they would have received a greater dose of herbicide. Rates were recalibrated for the other varieties to determine the approximate dose they would have received. Assessments were made as presented in Table 2 since it was not possible to make a direct rate comparison due to the effect of the height. For example injury scores were compare for S4897 treated imazamox rate 100 gm ai/ha to the other varieties treated at 75 gm ai/ha. The treatment dose of 300 gm ai/ha for line S4897 was equivalent to the treatment of 200 gm ai/ha for the other varieties, which […].
smiles,measurement,setting,value
"CC(C)C1(C)N=C(c2ncccc2C(=O)O)NC1=O (stereo not shown) [Imazapyr, imazapyr]","biomass accumulation, Dif with control",[1]; 0.5x (40 g ai/ha),5.5%
same,"plant height, Dif with Control",[1]; 0.5x (40 g ai/ha),5.6%
same,"root dry weight, Dif with control",[1]; 0.5x (40 g ai/ha),12.8%
same,"biomass accumulation, Dif with control",[1]; 1x (80 g ai/ha),17.8%
same,"plant height, Dif with Control",[1]; 1x (80 g ai/ha),10.8%
same,"root dry weight, Dif with control",[1]; 1x (80 g ai/ha),29.2%
same,"biomass accumulation, Dif with control",[1]; 2x (160 g ai/ha),38.4%
same,"plant height, Dif with Control",[1]; 2x (160 g ai/ha),30.8%
same,"root dry weight, Dif with control",[1]; 2x (160 g ai/ha),49.4%
same,"biomass accumulation, Dif with control",[1]; 3x (240 g ai/ha),52.4%
same,"plant height, Dif with Control",[1]; 3x (240 g ai/ha),49.6%
same,"root dry weight, Dif with control",[1]; 3x (240 g ai/ha),60.8%
same,"biomass accumulation, Dif with control",[1]; 4x (320 g ai/ha),64.6%
same,"plant height, Dif with Control",[1]; 4x (320 g ai/ha),66.3%
same,"root dry weight, Dif with control",[1]; 4x (320 g ai/ha),68.9%
same,"biomass accumulation, Dif with control",[1]; 5x (400 g ai/ha),67.6%
same,"plant height, Dif with Control",[1]; 5x (400 g ai/ha),68.0%
same,"root dry weight, Dif with control",[1]; 5x (400 g ai/ha),69.3%
same,"biomass accumulation, Dif with control",[1]; 6x (480 g ai/ha),70.0%
same,"root dry weight, Dif with control",[1]; 6x (480 g ai/ha),75.6%
same,"plant height, Dif with Control","[1]; 6x (480 g ai/ha), listed as imazapir",68.9% and 69.8%
same,"biomass accumulation, % of untreated, Mean",[1]; 0.5x (40 g ai/ha),94.5%
same,"root dry weight, % of untreated, Mean",[1]; 0.5x (40 g ai/ha),87.2%
same,"biomass accumulation, % of untreated, Mean",[1]; 1x (80 g ai/ha),82.2%
same,"root dry weight, % of untreated, Mean",[1]; 1x (80 g ai/ha),70.8%
same,"biomass accumulation, % of untreated, Mean",[1]; 2x (160 g ai/ha),61.6%
same,"plant height, % of untreated, Mean",[1]; 2x (160 g ai/ha),69.2%
same,"root dry weight, % of untreated, Mean",[1]; 2x (160 g ai/ha),50.6%
same,"biomass accumulation, % of untreated, Mean",[1]; 3x (240 g ai/ha),47.6%
same,"plant height, % of untreated, Mean",[1]; 3x (240 g ai/ha),50.4%
same,"root dry weight, % of untreated, Mean",[1]; 3x (240 g ai/ha),39.2%
same,"biomass accumulation, % of untreated, Mean",[1]; 4x (320 g ai/ha),35.4%
same,"plant height, % of untreated, Mean",[1]; 4x (320 g ai/ha),33.7%
same,"root dry weight, % of untreated, Mean",[1]; 4x (320 g ai/ha),31.1%
same,"biomass accumulation, % of untreated, Mean",[1]; 5x (400 g ai/ha),32.4%
same,"plant height, % of untreated, Mean",[1]; 5x (400 g ai/ha),32.0%
same,"root dry weight, % of untreated, Mean",[1]; 5x (400 g ai/ha),30.7%
same,"biomass accumulation, % of untreated, Mean",[1]; 6x (480 g ai/ha),30.0%
same,"plant height, % of untreated, Mean",[1]; 6x (480 g ai/ha),30.2%
same,"root dry weight, % of untreated, Mean",[1]; 6x (480 g ai/ha),24.4%
same,"Phytotoxicity Index, Mean",[1]; 0.5x (40 g ai/ha),0
same,"Phytotoxicity Index, Mean",[1]; 1x (80 g ai/ha),0
same,"Phytotoxicity Index, Mean",[1]; 2x (160 g ai/ha),2.2
same,"Phytotoxicity Index, Mean",[1]; 3x (240 g ai/ha),5.1
same,"Phytotoxicity Index, Mean",[1]; 4x (320 g ai/ha),7.4
same,"Phytotoxicity Index, Mean",[1]; 5x (400 g ai/ha),8.2
same,"Phytotoxicity Index, Mean",[1]; 6x (480 g ai/ha),8.2
same,Phytotoxicity Index,[2]; 0.5x (40 g ai/ha),0.4
same,"biomass accumulation, % of untreated",[2]; 0.5x (40 g ai/ha),96.6%
same,"plant height, % of untreated",[2]; 0.5x (40 g ai/ha),100.4%
same,"root dry weight, % of untreated",[2]; 0.5x (40 g ai/ha),100%
same,Phytotoxicity Index,[2]; 1x (80 g ai/ha),0.4
same,"biomass accumulation, % of untreated",[2]; 1x (80 g ai/ha),93.9%
same,"plant height, % of untreated",[2]; 1x (80 g ai/ha),99.9%
same,"root dry weight, % of untreated",[2]; 1x (80 g ai/ha),99.0%
same,Phytotoxicity Index,[2]; 2x (160 g ai/ha),0.4
same,"biomass accumulation, % of untreated",[2]; 2x (160 g ai/ha),81.6%
same,"plant height, % of untreated",[2]; 2x (160 g ai/ha),92.0%
same,"root dry weight, % of untreated",[2]; 2x (160 g ai/ha),86.1%
same,Phytotoxicity Index,[2]; 3x (240 g ai/ha),0.5
same,"biomass accumulation, % of untreated",[2]; 3x (240 g ai/ha),75.8%
same,"plant height, % of untreated",[2]; 3x (240 g ai/ha),90.5%
same,"root dry weight, % of untreated",[2]; 3x (240 g ai/ha),81.5%
same,Phytotoxicity Index,[2]; 4x (320 g ai/ha),1.0
same,"biomass accumulation, % of untreated",[2]; 4x (320 g ai/ha),75.0%
same,"plant height, % of untreated",[2]; 4x (320 g ai/ha),90.8%
same,"root dry weight, % of untreated",[2]; 4x (320 g ai/ha),72.6%
same,Phytotoxicity Index,[2]; 5x (400 g ai/ha),2.0
same,"biomass accumulation, % of untreated",[2]; 5x (400 g ai/ha),60.1%
same,"plant height, % of untreated",[2]; 5x (400 g ai/ha),84.4%
same,"root dry weight, % of untreated",[2]; 5x (400 g ai/ha),68.9%
same,Phytotoxicity Index,[2]; 6x (480 g ai/ha),2.5
same,"biomass accumulation, % of untreated",[2]; 6x (480 g ai/ha),59.6%
same,"plant height, % of untreated",[2]; 6x (480 g ai/ha),84.4%
same,"root dry weight, % of untreated",[2]; 6x (480 g ai/ha),45.3%
same,"biomass accumulation, % of untreated",[3]; 0.5x (40 g ai/ha),92.9%
same,"plant height, % of untreated",[3]; 0.5x (40 g ai/ha),79.1%
same,"root dry weight, % of untreated",[3]; 0.5x (40 g ai/ha),79.2%
same,"biomass accumulation, % of untreated",[3]; 1x (80 g ai/ha),75.1%
same,"plant height, % of untreated",[3]; 1x (80 g ai/ha),76.7%
same,"root dry weight, % of untreated",[3]; 1x (80 g ai/ha),56.3%
same,"biomass accumulation, % of untreated",[3]; 2x (160 g ai/ha),55.1%
same,"plant height, % of untreated",[3]; 2x (160 g ai/ha),57.7%
same,"root dry weight, % of untreated",[3]; 2x (160 g ai/ha),40.6%
same,"biomass accumulation, % of untreated",[3]; 3x (240 g ai/ha),45.6%
same,"plant height, % of untreated",[3]; 3x (240 g ai/ha),55.3%
same,"root dry weight, % of untreated",[3]; 3x (240 g ai/ha),40.2%
same,"biomass accumulation, % of untreated",[3]; 4x (320 g ai/ha),31.8%
same,"plant height, % of untreated",[3]; 4x (320 g ai/ha),27.3%
same,"root dry weight, % of untreated",[3]; 4x (320 g ai/ha),34.0%
same,"biomass accumulation, % of untreated",[3]; 5x (400 g ai/ha),34.2%
same,"plant height, % of untreated",[3]; 5x (400 g ai/ha),37.2%
same,"root dry weight, % of untreated",[3]; 5x (400 g ai/ha),48.5%
same,"biomass accumulation, % of untreated",[3]; 6x (480 g ai/ha),36.8%
same,"plant height, % of untreated",[3]; 6x (480 g ai/ha),30.0%
same,"root dry weight, % of untreated",[3]; 6x (480 g ai/ha),43.1%
same,Injury at 14 DAT,[4],4.9 c
